According to US11752162B2, “Compounds and compositions for treating solid tumors by intratumoral administration” (Novartis AG, priority 2017, dated 2023):

Assays:
[1] = tested on: IP-10; experiment: Plasma IP-10 profiles in Wistar rats after s.c. injection; assay type: in vivo, rat; settings: male Wistar rats
[2] = Adsorption of compounds to aluminum hydroxide in histidine buffer (pH 6.8); assay type: physicochemical; settings: histidine buffer pH 6.8, 0.1 mg/mL compound, 37° C. 5 hours
[3] = Binding efficiency of Compound 15 to aluminum-containing particles (Alhydrogel) in Tris buffer; assay type: physicochemical
[4] = in vivo; settings: female, C57/BL6, mouse, iv, 2 mg/kg
[5] = Extent of Compound 15 binding to Alhydrogel (% bound) in the suspension; assay type: physicochemical; settings: for % bound (Compound 15 adsorbed to aluminum hydroxide): 100 mM Tris buffer (pH 7.4)
Experimental: In the preparation of the Compound 15/Alhydrogel® suspension used in the Examples herein, the stock suspension of Alhydrogel® was filtered by gravity filtration through a 100 μm cell strainer before mixing with stock solution comprising Compound 15. The resulting mixture/suspension was stirred for 5 minutes to allow Compound 15 to adsorb/bind to the aluminum of Alhydrogel®.
To determine the extent of Compound 15 binding to Alhydrogel® (i.e. % bound) in the Compound 15/Alhydrogel® suspension used in the Examples herein, aliquots of the suspension were centrifuged to pellet the bound Compound 15/Alhydrogel® (e.g. 21,000×g for 10 min), and the amount of free Compound 15 in the supernatant was analyzed by HPLC/UV or LC/MS/MS.

[6] = tested on: MC38 tumors; experiment: Contralateral MC38 colon cancer model, alone or with checkpoint inhibitors; assay type: in vivo, mouse; settings: Compound 15 alone, without aluminum hydroxide, 50 μg i.t.
Experimental: MC38 cells were grown in sterile conditions in a 37° C. incubator with 5% CO2 for two weeks. The cells were cultured in Dulbecco's Modified Eagle's medium (DMEM) media supplemented with 10% FBS, cells were passed every 2-3 days. On the day of injection, cells were harvested (Passage 12) and re-suspended in Hanks' Balanced Salt Solution (HBSS) at a concentration of 2.5×10^6/ml. Cells were Radil tested for mycoplasma and murine viruses.
For each mouse, 0.25×10^6 cells were implanted with subcutaneously injection into right flank using a 28½ g needle ([…]). After the first implantation on day 3 (0.25×10^6) cells are implanted with a subcutaneous injection into left flank using a 28½ g needle (100 μL injection volume). Tumor sizes were assessed three times a week once tumors were palpable. Tumor sizes were determined by using caliper measurements, with tumor volumes calculated using the formula: (Length×Width×Width)/2.
Female C57BL/6 mice bearing the MC38 tumors were randomized into 7 groups (n=9 mice per group) 9 days post tumor cell implantation with an average tumor volume range of 69.09-142.25 mm^3, and the separate groups of tumor bearing mice received treatment as shown in Table 17.
The anti-tumor efficacy of Compound 15 adsorbed to aluminum hydroxide (Alhydrogel®) alone or in combination with checkpoint inhibitors, was determined using a contralateral MC38 colon cancer model. The tumor volume was obtained after two weekly intratumoral injections of Compound 15 adsorbed to aluminum hydroxide (50 μg each) either alone (Group 2), in a double combination with intraperitoneal injection (twice weekly) of an anti-PD-L1 antibody (10 mg/kg) (Group 5), in a double combination with intraperitoneal injection (twice weekly) of an anti-CTLA4 antibody (10 mg/kg) (Group 6), or in a triple combination with intraperitoneal injection (twice weekly) of an anti-PD-L1 antibody (10 mg/kg) and with intraperitoneal injection of an anti-CTLA4 antibody (10 mg/kg) (group 7). For comparison, data was obtained after an intraperitoneal injection (twice weekly) of the anti-PD-L1 antibody (10 mg/kg) alone (Group 3) and after an intraperitoneal injection (twice weekly) of the anti-CTLA4 antibody (10 mg/kg) alone (Group 4). The untreated control data was also obtained (Group 1).
The anti-tumor efficacy of Compound 15 alone (without aluminum hydroxide (Alhydrogel®)) or in combination with checkpoint inhibitors was determined using a contralateral MC38 colon cancer model. […] In addition, the anti-tumor efficacy of Compound 15 adsorbed to aluminum hydroxide (Alhydrogel®) alone or in a triple combination with checkpoint inhibitors was determined using a contralateral MC38 colon cancer model. […]

[7] = Mouse plasma PK, MC38 syngeneic tumor model, one week study; assay type: in vivo; settings: female, C57BL/6, mouse, 100 ug, 100 μg Compound 15, single i.t. injection, MC38 tumor bearing mice
[8] = female, C57/BL6, mouse, in vivo, iv, 2 mg/kg
[9] = Compound 15 0.25 mg/mL, aluminum 0.625 mg/mL, ratio 2.5:1
[10] = Compound 15 0.25 mg/mL, aluminum 5 mg/mL, ratio 20:1
[11] = Compound 15 1 mg/mL, aluminum 2.5 mg/mL, ratio 2.5:1
[12] = Compound 15 2 mg/mL, aluminum 0.1 mg/mL, ratio 0.05:1, 20 mM Tris pH 7.4
[13] = Compound 15 2 mg/mL, aluminum 2 mg/mL, ratio 1:1, 20 mM Tris pH 7.4
[14] = Compound 15 2 mg/mL, aluminum 3 mg/mL, ratio 1.5:1, 20 mM Tris pH 7.4
[15] = Compound 15 3 mg/mL, aluminum 5 mg/mL, ratio 1.7:1
[16] = Compound 15 3 mg/mL, aluminum 7.5 mg/mL, ratio 2.5:1

% Bound [2]: 96.0%
Compound 15 % Bound [3, 9]: 90.7%
Compound 15 % Free [3, 9]: 9.3%
Compound 15 % Bound [3, 10]: 97.6%
Compound 15 % Free [3, 10]: 1.4%
Compound 15 % Bound [3, 11]: 93.5%
Compound 15 % Free [3, 11]: 6.5%
Compound 15 % Bound [3, 12]: 9.6%
Compound 15 % Free [3, 12]: 90.4%
Compound 15 % Free ([3]; Compound 15 2 mg/mL, aluminum 0.5 mg/mL, ratio 0.25:1, 20 mM Tris pH 7.4): 74.3%
Compound 15 % Bound ([3]; Compound 15 2 mg/mL, aluminum 1 mg/mL, ratio 0.5:1, 20 mM Tris pH 7.4): 43.5%
Compound 15 % Bound [3, 13]: 80.8%
Compound 15 % Free [3, 13]: 19.2%
Compound 15 % Bound [3, 14]: 97.6%
Compound 15 % Free [3, 14]: 2.4%
Compound 15 % Bound [3, 15]: 99.6%
Compound 15 % Free [3, 15]: 0.4%
Compound 15 % Bound [3, 16]: 97.1%
Compound 15 % Free [3, 16]: 2.9%
Compound 15 % Bound ([3]; aluminum hydroxide:Compound 15 ratio (w/w) 1.5:1, Tris buffer pH 7): 98.5%
Compound 15 % Bound ([3]; aluminum hydroxide:Compound 15 ratio (w/w) 1.5:1, Tris buffer pH 7.5): 85.9%
Compound 15 % Bound ([3]; aluminum hydroxide:Compound 15 ratio (w/w) 2:1, Tris buffer pH 7): 99.3%
Compound 15 % Bound ([3]; aluminum hydroxide:Compound 15 ratio (w/w) 2:1, Tris buffer pH 8): 99.1%
% Free Compound 15 ([3]; dosing formulation of Example 9, 100 mM Tris pH 7.4): 100%
% Free Compound 15 ([3]; dosing formulation of Example 10, 100 mM Tris pH 7.4): 100%
MRT [4]: 10.2 min
clearance [4]: 18.1 mL/min/kg
half-life [4]: 60 min
% bound (Compound 15 adsorbed to aluminum hydroxide) ([5]; 50 μg dose formulation, 1:2.5 w/w ratio): 91%
% bound (Compound 15 adsorbed to aluminum hydroxide) ([5]; 200 μg dose formulation, 1:2.5 w/w ratio): 94%
% bound (Compound 15 adsorbed to aluminum hydroxide) ([5]; 600 μg dose formulation, 1:2.5 w/w ratio): 97%
% bound (Compound 15 adsorbed to aluminum hydroxide) ([5]; 50 kg/50 μg (so in the source) dose formulation, 1:20 w/w ratio): 98%
% bound (Compound 15 adsorbed to aluminum hydroxide) ([5]; 600 kg (so in the source) dose formulation, 1:1.7 w/w ratio): 98%
% bound (Compound 15/aluminum hydroxide) ([5]; fixed ratio of 1:1.5 w/w, A20 study formulation): 97%
AUC(0-inf) [7]: 6220 ng·h/mL
Cmax [7]: 10600 ng/mL
Tmax [7]: 4.98 min
half-life ([7]; other: intra-tumoral (i.t.) injection): 159 min
plasma clearance as % of mouse liver blood flow [8]: ~20%
SMILES: Cc1cc(OCCOCCC(F)(F)P(=O)(O)O)ccc1CCc1cnc2c(N)nc3cc(CCC(=O)O)ccc3c2c1 [Compound 15, 3-(5-amino-2-(4-(2-(3,3-difluoro-3-phosphonopropoxy)ethoxy)-2-methylphenethyl)benzo[f][1,7]naphthyridin-8-yl)propanoic acid]
peak plasma IP-10 levels compared with 600 μg Compound 15/aluminum hydroxide ([1]; 600 μg s.c.): higher peak IP-10 levels with a fast rate of decline
time of maximum plasma IP-10 levels post s.c. injection ([1]; 50 and 600 μg adsorbed, 600 μg free Compound 15): around 3 h
difference from the no treatment group, contralateral tumor site [6]: did not show a difference from the no treatment group
difference from the no treatment group, primary injection site [6]: did not show a difference from the no treatment group
